Source: article PMC7144554, “2-(Arylamino)-6-(trifluoromethyl)nicotinic Acid Derivatives: New HIV-1 RT Dual Inhibitors Active on Viral Replication” (Molecules, 2020)

Key:
[1] = biological target: T1, HIV-1 RT-associated RNase H activity (wt RT) (Human immunodeficiency virus type 1 group M subtype B, UniProt P04585); assay: HIV-1 DNA polymerase-independent RNase H activity, wt RT; type: biochemical; settings: for IC50: RNase H IC50, wt RT; for RNase H IC50 / percentage in parenthesis in presence of the highest concentration of inhibitor tested (RNase H): wt RT
T1 construct: RT is a heterodimeric (p66/p51) multifunctional enzyme; made in house; host or cells: Escherichia coli strain M15
Procedure: p6HRT-prot vector was kindly provided by Dr. Stuart Le Grice Laboratory. Heterodimeric RT was expressed essentially as described. Briefly, Escherichia coli strain M15 containing the p6HRT-prot vector were grown up to an OD600 of 0.7 and induced with isopropyl β-D-1-thiogalactopyranoside (IPTG) 1.7 mM for 4 h. Cell pellets were resuspended in Lysis buffer (50 mM sodium phosphate pH 7.8, 0.5 mg/mL lysozyme), incubated on ice for 20 min, added 0.3 M final NaCl, sonicated and centrifuged at 30,000× g for 1 h. The supernatant was loaded into a Ni^2+-sepharose column pre-equilibrated with loading buffer (50 mM sodium phosphate pH 7.8, 0.3 M NaCl, 10% glycerol, 10 mM imidazole) and washed thoroughly with wash buffer (50 mM sodium phosphate pH 6.0, 0.3 M NaCl, 10% glycerol, 80 mM imidazole). RT was gradient-eluted with elute buffer (wash buffer with 0.5 M imidazole). Fractions were collected, protein purity was checked by SDS-PAGE and found to be higher than 90%. RT containing fractions were pooled and diluted 1:1 with dilute buffer (50 mM sodium phosphate pH 7.0, 10% glycerol) then loaded into a Hi-trap Heparine HP GE (Healthcare Lifescience) pre-equilibrated with 10-column volume of loading buffer 2 (50 mM sodium phosphate pH 7.0, 10% glycerol, 150 mM NaCl). Column was then washed with loading buffer 2 and RT was gradient-eluted with elute buffer 2 (50 mM sodium phosphate pH 7.0, 10% glycerol, 150 mM NaCl). Fractions were collected, protein was dialyzed and stored in buffer containing 50 mM Tris HCl pH 7.0, 25 mM NaCl, 1 mM EDTA, 50% glycerol. Catalytic activities and protein concentration were determined. Enzyme-containing fractions were pooled and aliquots were stored at −80 °C.
The RT-associated RNase H activity of wt and mutated HIV RTs was measured as described, in 100 µL reaction volume containing 50 mM Tris HCl pH 7.8, 6 mM MgCl2, 1 mM dithiothreitol (DTT), 80 mM KCl, hybrid RNA/DNA (5’-[…]-3’-Fluorescein, 5’-[…]-3’-Dabcyl), and different amounts of enzymes according to a linear range of dose-response curve—20 ng of wt RT; 50 ng K103N RT; 100 ng V108A RT; 4 ng Y181C RT; 100 ng Q475A RT; 100 ng A502F RT. The reaction mixture was incubated for 1 h at 37 °C, the reaction was stopped by addition of EDTA and products were measured with a Victor 3 (Perkin) at 490/528 nm.

HIV-1 IIIB strain = assay: Antiviral assay, HIV-1 replication in TZMbl cells (luciferase); type: cell-based; settings: TZMbl cells; for EC50: Human immunodeficiency virus 1, TZM-bl, read-out: HIV-1 EC50 TZMbl Cells
Procedure: Drug-mediated inhibition of virus-induced cytotoxicity was assayed in TZM-BL cells. […] Serial dilutions of drugs were added immediately after infection. Luciferase activity was measured as reported [67]. Two days after infection, the culture medium was removed from each well and 100 µl of Bright Glo reagent (Promega, Luis Obispo, CA) was added to the cells for measurement of luminescence using a Victor 2 luminometer (Perkin). […] Cell viability in CEM cells was quantified 5 days after infection with the MTT-dye reduction method.

[2] = Cytotoxicity in TZMbl cells; type: cell-based; settings: human
[3] = Cell viability in CEM cells (MTT); type: cell-based; settings: human, MTT, 5 days
Procedure: Drug-mediated inhibition of virus-induced cytotoxicity was assayed in TZM-BL cells. Triplicate wells of 96-well plates containing 1 × 10^4 TZMbl cells were infected with HIV-1 IIIB strain at a multiplicity of infection of 0.1. Serial dilutions of drugs were added immediately after infection. Luciferase activity was measured as reported. Two days after infection, the culture medium was removed from each well and 100 µl of Bright Glo reagent (Promega, Luis Obispo, CA) was added to the cells for measurement of luminescence using a Victor 2 luminometer (Perkin). The 50% effective concentration (EC50) was defined as the concentration that caused a 50% reduction of luciferase activity (relative light units) compared to virus control wells. Cell viability in CEM cells was quantified 5 days after infection with the MTT-dye reduction method.

Row | SMILES | IC50 [1] | RNase H IC50 [1] | percentage in parenthesis in presence of the highest concentration of inhibitor tested (RNase H) [1] | melting point | EC50 (HIV-1 IIIB strain; HIV-1 IIIB) | HIV-1 EC50 TZMbl Cells (HIV-1 IIIB strain; HIV-1 IIIB) | CC50 [2] | CC50 at 5 days [3] | SI (selectivity index) (HIV-1 IIIB strain)
1 | Cc1ccc(Cl)cc1Nc1nc(C(F)(F)F)ccc1C(N)=O [Compound 6] | > 100 µM | completely inactive | 87% | – | – | – | – | – | –
2 | Cc1ccc(Cl)cc1Nc1nc(C(F)(F)F)ccc1C(=O)Oc1ccccc1Cl [Compound 11] | > 100 µM | – | 92% | – | – | – | – | – | –
3 | Cc1ccc(Cl)cc1Nc1nc(C(F)(F)F)ccc1C(=O)Oc1cccc(Cl)c1 [Compound 12] | > 100 µM | – | 98% | – | – | – | – | – | –
4 | Cc1ccc(Cl)cc1Nc1nc(C(F)(F)F)ccc1C(=O)Oc1ccc(Cl)cc1Cl [Compound 14] | > 100 µM | abolished the activity | 98% | – | – | – | – | – | –
5 | Cc1ccc(Cl)cc1Nc1nc(C(F)(F)F)ccc1C(=O)Oc1c(Cl)cc(Cl)cc1Cl [Compound 15] | 31.8 ± 3.5 µM | – | – | – | – | – | – | – | –
6 | Cc1ccc(Cl)cc1Nc1nc(C(F)(F)F)ccc1C(=O)Oc1ccc(O)cc1 [Compound 18, 4-Hydroxyphenyl 2-((5-chloro-2-methylphenyl)amino)-6-(trifluoromethyl)nicotinate] | 20 ± 1.3 µM | – | – | 184 to 186 °C | – | – | – | – | –
7 | COc1cccc(OC(=O)c2ccc(C(F)(F)F)nc2Nc2cc(Cl)ccc2C)c1 [Compound 19] | > 100 µM | – | 80% | – | – | – | – | – | –
8 | COc1ccc(OC(=O)c2ccc(C(F)(F)F)nc2Nc2cc(Cl)ccc2C)cc1OC [Compound 20, 3,4-Dimethoxyphenyl-2-((5-chloro-2-methylphenyl)amino)-6-(trifluoromethyl)nicotinate] | 21 ± 11 µM | – | – | – | – | – | – | – | –
9 | COc1cc(OC(=O)c2ccc(C(F)(F)F)nc2Nc2cc(Cl)ccc2C)cc(OC)c1OC [Compound 22, 3,4,5-Trimethoxyphenyl 2-((5-chloro-2-methylphenyl)amino)-6-(trifluoromethyl)nicotinate] | 17.3 ± 1.3 µM | – | – | 138 to 140 °C | – | – | – | – | –
10 | Cc1ccc(Cl)cc1Nc1nc(C(F)(F)F)ccc1C(=O)NO [Compound 25, 2-((5-Chloro-2-methylphenyl)amino)-N-hydroxy-6-(trifluoromethyl)nicotinamide] | 0.77 ± 0.06 µM | – | – | 154 to 155 °C | > 10 µM | inactive | 14 ± 2.8 µM | 35 µM | –
11 | CCOC(=O)CNC(=O)c1ccc(C(F)(F)F)nc1Nc1cc(Cl)ccc1C [Compound 26, Ethyl 2-(2-((5-chloro-2-methylphenyl)amino)-6-(trifluoromethyl)nicotinamido)acetate] | > 100 µM | – | >100 (100%) | 128 to 130 °C | – | – | – | – | –
12 | Cc1ccc(Cl)cc1Nc1nc(C(F)(F)F)ccc1C(=O)Nc1cccnc1 [Compound 27] | 25 ± 4.9 µM | – | – | – | > 5.8 µM | – | 5.8 ± 0.8 µM | 16.2 µM | –
13 | CSc1ccc(NC(=O)c2ccc(C(F)(F)F)nc2Nc2cc(Cl)ccc2C)cc1 [Compound 28, 2-((5-Chloro-2-methylphenyl)amino)-N-(4-(methylthio)phenyl)-6-(trifluoromethyl)nicotinamide] | 5.9 ± 0.9 µM | – | – | – | – | – | – | – | –
14 | Cc1cccc(NC(=O)c2ccc(C(F)(F)F)nc2Nc2cc(Cl)ccc2C)c1 [Compound 29] | 8.9 ± 0.1 µM | – | – | – | 2.5 ± 0.4 µM | – | 3.9 ± 0.9 µM | 6.3 µM | 1.6
15 | Cc1ccc(Cl)cc1Nc1nc(C(F)(F)F)ccc1C(=O)Nc1cccc(Cl)c1 [Compound 30] | 4 ± 2.2 µM | – | – | – | > 3.9 µM | – | 3.9 ± 0.9 µM | 8.4 µM | –
16 | Cc1ccc(Cl)cc1Nc1nc(C(F)(F)F)ccc1C(=O)Nc1ccc(Cl)cc1Cl [Compound 31] | 8.8 ± 0.5 µM | – | – | – | > 4.7 µM | – | 4.7 ± 1.7 µM | 7.8 µM | –
17 | COc1ccc(NC(=O)c2ccc(C(F)(F)F)nc2Nc2cc(Cl)ccc2C)cc1Cl [Compound 32] | > 100 µM | – | >100 (100%) | – | – | – | – | – | –
18 | COc1cccc(NC(=O)c2ccc(C(F)(F)F)nc2Nc2cc(Cl)ccc2C)c1 [Compound 33] | > 100 µM | abolished the activity | 54% | – | – | – | – | – | –
19 | COc1cc(NC(=O)c2ccc(C(F)(F)F)nc2Nc2cc(Cl)ccc2C)cc(OC)c1 [Compound 34] | 17.5 ± 3.9 µM | – | – | – | 2 ± 0.3 µM | – | 5.3 ± 0.6 µM | 10.4 µM | 2.6
20 | COc1ccc(NC(=O)c2ccc(C(F)(F)F)nc2Nc2cc(Cl)ccc2C)cc1OC [Compound 35] | 22.4 ± 4 µM | – | – | – | – | – | – | – | –
21 | COc1cc(NC(=O)c2ccc(C(F)(F)F)nc2Nc2cc(Cl)ccc2C)cc(OC)c1OC [Compound 36] | 19.4 ± 1.5 µM | – | – | – | 1.8 ± 0.6 µM | – | 2.2 ± 0.4 µM | 10.2 µM | 1.2
22 | Cc1ccc(Cl)cc1Nc1nc(C(F)(F)F)ccc1C(=O)Nc1ccc(C(F)(F)F)cc1 [Compound 37] | 7.8 ± 1.2 µM | – | – | – | > 2.2 µM | – | 2.2 ± 0.2 µM | 4.3 µM | –
23 | Cc1ccc(Cl)cc1Nc1nc(C(F)(F)F)ccc1C(=O)NCc1ccccc1Cl [Compound 38, N-(2-chlorobenzyl)-2-((5-chloro-2-methylphenyl)amino)-6-(trifluoromethyl)nicotinamide] | 19.4 ± 1.1 µM | – | – | – | > 5.7 µM | – | 5.7 ± 0.7 µM | 12.5 µM | –
24 | Cc1ccc(Cl)cc1Nc1nc(C(F)(F)F)ccc1C(=O)NCc1ccc(Cl)cc1 [Compound 40, N-(4-chlorobenzyl)-2-((5-chloro-2-methylphenyl)amino)-6-(trifluoromethyl)nicotinamide] | 6.4 ± 0.5 µM | – | – | 130 to 131 °C | > 4.7 µM | – | 4.7 ± 0.4 µM | 7.75 µM | –
25 | Cc1ccc(Cl)cc1Nc1nc(C(F)(F)F)ccc1C(=O)NCc1ccc(F)cc1 [Compound 41, 2-((5-Chloro-2-methylphenyl)amino)-N-(4-fluorobenzyl)-6-(trifluoromethyl)nicotinamide] | 23.3 ± 3.1 µM | – | – | – | > 6 µM | – | 6 ± 0.6 µM | 11.6 µM | –
26 | Cc1ccc(Cl)cc1Nc1nc(C(F)(F)F)ccc1C(=O)NCc1ccc(C(F)(F)F)cc1 [Compound 42, 2-((5-Chloro-2-methylphenyl)amino)-6-(trifluoromethyl)-N-(4-(trifluoromethyl)benzyl)nicotinamide] | 21.9 ± 0.2 µM | – | – | 170 to 171 °C | > 3.6 µM | – | 3.6 ± 1.2 µM | 5 µM | –
27 | COc1ccc(CNC(=O)c2ccc(C(F)(F)F)nc2Nc2cc(Cl)ccc2C)cc1 [Compound 43, 2-((5-Chloro-2-methylphenyl)amino)-N-(4-methoxybenzyl)-6-(trifluoromethyl)nicotinamide] | 30.4 ± 3.9 µM | – | – | – | > 10 µM | – | 13.2 ± 1.3 µM | 20 µM | –
28 | Cc1ccc(CNC(=O)c2ccc(C(F)(F)F)nc2Nc2cc(Cl)ccc2C)cc1 [Compound 44, 2-((5-Chloro-2-methylphenyl)amino)-N-(4-methylbenzyl)-6-(trifluoromethyl)nicotinamide] | 21.3 ± 0.5 µM | – | – | – | > 1.1 µM | – | 1.1 µM | 3.5 µM | –
29 | Cc1ccc(Cl)cc1Nc1nc(C(F)(F)F)ccc1C(=O)N1CCN(c2ccccc2)CC1 [Compound 48, (2-((5-Chloro-2-methylphenyl)amino)-6-(trifluoromethyl)pyridin-3-yl)(4-phenylpiperazin-1-yl)methanone] | > 100 µM | – | >100 (100%) | 118 to 120 °C | – | – | – | – | –
